Data set [1] can be described thus: inhibitors of firefly luciferase expression or activity, dose response, H4 neuroglioma cells, luminescence (AID 1990). It is filed as functional, cell-based.
Data set [2] is described as follows: Luminescence Cell-Based Dose Response HTS to Identify Inhibitors of 5'UTR Stem-Loop Driven Prion Protein mRNA Translation in H4 Neuroglioblastoma Cells. [Related pubchem assays: 1827 (Project Summary), 1813 (Primary HTS)]. It is filed as functional.
Data set [3] can be described thus: inhibitors of SNCA 5'UTR-driven reporter translation, confirmation, H4 neuroglioma cells, luminescence (AID 1988). Format: functional, cell-based.
A short description of data set [4]: HEp-2 cell cytotoxicity, dose response, cytotoxicity control for RSV inhibitor project, HTS (AID 2410). Format: functional. Particulars: human respiratory syncytial virus.
In a further data set the target is Cytochrome P450 2C19 (Homo sapiens, UniProt P33261). Briefly: Cytochrome panel assay with activity outcomes. Panel member name: p450-cyp2c19 Compounds with AC50 equal or less than 10 uM are considered active. Format: functional.
Cytochrome P450 2C19, sequence (P33261 whole entry): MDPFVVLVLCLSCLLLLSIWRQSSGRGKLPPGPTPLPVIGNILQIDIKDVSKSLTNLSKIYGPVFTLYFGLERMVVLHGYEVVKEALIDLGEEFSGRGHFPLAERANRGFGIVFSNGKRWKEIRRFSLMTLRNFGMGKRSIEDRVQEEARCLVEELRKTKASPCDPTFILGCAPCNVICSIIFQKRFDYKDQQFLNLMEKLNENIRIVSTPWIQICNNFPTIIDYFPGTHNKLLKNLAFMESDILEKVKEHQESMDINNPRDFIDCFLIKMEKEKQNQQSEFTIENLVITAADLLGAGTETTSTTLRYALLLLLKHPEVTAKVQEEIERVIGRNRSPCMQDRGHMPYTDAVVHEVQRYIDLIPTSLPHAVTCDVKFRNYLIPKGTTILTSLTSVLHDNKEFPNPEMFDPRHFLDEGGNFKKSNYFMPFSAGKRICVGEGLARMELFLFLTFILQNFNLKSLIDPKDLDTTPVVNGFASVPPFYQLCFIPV
In the next data set the target is Cytochrome P450 3A4 (Homo sapiens, UniProt P08684).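 Further: CYP3A4 tested as one member of a cytochrome P450 panel screen.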
Cytochrome P450 3A4, sequence (P08684 whole entry): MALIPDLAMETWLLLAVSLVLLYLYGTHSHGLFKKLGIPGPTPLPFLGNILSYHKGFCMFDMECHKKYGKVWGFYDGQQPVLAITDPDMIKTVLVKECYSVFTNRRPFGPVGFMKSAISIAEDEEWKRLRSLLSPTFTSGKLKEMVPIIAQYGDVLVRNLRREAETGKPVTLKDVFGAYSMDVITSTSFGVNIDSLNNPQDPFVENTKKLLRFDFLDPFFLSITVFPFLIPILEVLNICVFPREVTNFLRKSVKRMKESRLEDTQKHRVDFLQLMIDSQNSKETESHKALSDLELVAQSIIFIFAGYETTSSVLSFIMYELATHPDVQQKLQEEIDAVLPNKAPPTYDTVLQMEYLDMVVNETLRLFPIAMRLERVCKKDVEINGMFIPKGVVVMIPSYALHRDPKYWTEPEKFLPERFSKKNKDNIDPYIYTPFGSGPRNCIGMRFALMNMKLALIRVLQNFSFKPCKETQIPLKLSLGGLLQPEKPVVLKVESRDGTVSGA
In a further data set the target is Cytochrome P450 2C9 (Homo sapiens, UniProt P11712).
Cytochrome P450 2C9, sequence (P11712 whole entry): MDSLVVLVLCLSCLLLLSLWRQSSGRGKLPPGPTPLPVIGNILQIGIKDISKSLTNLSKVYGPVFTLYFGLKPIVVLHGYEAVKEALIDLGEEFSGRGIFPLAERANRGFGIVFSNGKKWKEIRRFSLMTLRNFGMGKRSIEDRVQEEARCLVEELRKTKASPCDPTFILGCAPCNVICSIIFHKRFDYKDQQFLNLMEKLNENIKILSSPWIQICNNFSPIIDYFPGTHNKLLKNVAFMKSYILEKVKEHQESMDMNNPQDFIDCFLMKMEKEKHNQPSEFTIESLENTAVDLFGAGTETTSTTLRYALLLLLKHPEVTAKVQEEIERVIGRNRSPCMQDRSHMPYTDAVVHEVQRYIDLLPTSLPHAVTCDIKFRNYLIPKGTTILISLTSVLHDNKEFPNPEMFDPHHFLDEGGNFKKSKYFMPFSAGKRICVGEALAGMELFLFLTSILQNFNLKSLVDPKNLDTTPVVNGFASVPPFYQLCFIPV
For another data set, the target named is T1, Cytochrome P450 1A2 (Homo sapiens, UniProt P05177).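 Further: PubChem cytochrome P450 panel assay, CYP1A2 panel member.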
T1 sequence (P05177 whole entry): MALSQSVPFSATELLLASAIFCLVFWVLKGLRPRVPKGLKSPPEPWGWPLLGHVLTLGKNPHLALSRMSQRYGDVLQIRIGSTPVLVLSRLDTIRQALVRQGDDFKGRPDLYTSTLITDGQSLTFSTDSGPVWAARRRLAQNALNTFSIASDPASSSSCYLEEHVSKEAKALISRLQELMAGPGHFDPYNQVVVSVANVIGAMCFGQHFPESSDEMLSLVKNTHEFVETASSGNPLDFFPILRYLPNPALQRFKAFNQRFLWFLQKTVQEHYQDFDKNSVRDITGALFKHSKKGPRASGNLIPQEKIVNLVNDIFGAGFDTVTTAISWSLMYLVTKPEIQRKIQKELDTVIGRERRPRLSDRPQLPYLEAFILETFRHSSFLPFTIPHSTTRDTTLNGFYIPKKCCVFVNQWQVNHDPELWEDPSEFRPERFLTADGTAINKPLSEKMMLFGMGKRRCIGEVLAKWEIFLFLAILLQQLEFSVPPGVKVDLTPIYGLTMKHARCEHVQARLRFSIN

The nature of data set [5]: Shn3 3'UTR reporter inhibitors, dose response, cell-based, Clone20 osteoblasts, firefly luciferase, cherry-picked (AID 624132).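 Further: firefly luciferase luminescence from reporter carrying the Shn3 3'UTR in osteoblasts.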 It is filed as functional.
Data set [6] in a line: HepG2 cell cytotoxicity, dose response, cytotoxicity control for Shn3 inhibitor project, CellTiter-Glo, cherry-picked (AID 624134). It is filed as functional, cell-based. A general note: Cellular ATP, detected with luciferase, serves as a proxy for viable cell number.

Where “and” joins values, the source holds several entries; their conditions need not be identical. Equal values may be shown once. Calls of active or inactive are those of the source. Bounds are passed on as bounds.

We go through 44 molecules from ChEMBL document CHEMBL1201862, “PubChem BioAssay data set” (2004).

Regarding `Cc1ccc(S(=O)(=O)c2cc3c(=O)n4cccc(C)c4nc3n(Cc3ccncc3)c2=N)cc1`, the EC50 in data set [1], in data set [2] and in data set [3] was > 120 µM (not active) each time.

On to `CCc1noc(C)c1C(=O)Oc1ccc(N(C)S(=O)(=O)c2ccccc2)cc1`, for which the CC50 – broadly, the concentration that lowers cell viability or growth by half – in [4] is 26.2 µM (active). As to `CCOc1ccc(Oc2nc(NCC(C)C)nc(N(C)C)n2)nn1`, the EC50 (usually the concentration needed to bring the measured effect to its halfway point) in data set [1] was 115 µM (active); in [2] it was > 120 µM (not active); in [3], > 120 µM (not active). For the molecule `CN(C)/C(CN1CCOCC1)=C1\N=C(c2ccccc2)OC1=O`, the AC50 (as a rule, the concentration giving half of the maximal activity seen) on Cytochrome P450 2C19 (read-out: AC50) was 7.94 µM (inconclusive). Take `N=C(N)SCc1cccc2c(=O)cc(-c3ccccc3)oc12`: the AC50 at Cytochrome P450 2C19 (read-out: AC50) is 3.98 µM (inconclusive); on Cytochrome P450 3A4, 3.16 µM (inconclusive). With `CCOc1cc2sc(N3CCC(C(=O)NCCCN4CCCC4=O)CC3)nc2cc1Br`, the CC50 in data set [4] was 19.8 µM (active). `CCOC(=O)c1c(C)[nH]c(C(=O)OCC(=O)NC2CCS(=O)(=O)C2)c1C` (stereo unspecified): the figures for the AC50 result on Cytochrome P450 2C19 and at Cytochrome P450 2C9 were “inconclusive” and 31.6 µM (inconclusive), respectively. On to `CCOC(=O)CC(NC(=O)c1ccco1)c1ccc(OC)cc1` (stereo unspecified), for which the AC50 was 25.1 µM (inconclusive) at Cytochrome P450 1A2 and 15.8 µM (inconclusive) at Cytochrome P450 2C9. Regarding `CC(C)(C)C(=O)NC(c1ccc(Cl)cc1)[C@]1(C)C[C@H]1C1CCCCC1` (stereo partly specified), the AC50 on Cytochrome P450 2C19 (read-out: AC50) was 7.94 µM (inconclusive).

`Cn1/c(=N/C(=O)C2CCCCC2)sc2cc([N+](=O)[O-])ccc21`: the CC50 in data set [4] is > 50 µM (active).

Take `COc1ccc(C2(C)NC(=O)N(CC(=O)Nc3ccc4c(c3)OCO4)C2=O)cc1OC` (stereo unspecified): the EC50 in data set [1], in data set [2] and in data set [3] was > 120 µM (not active) each time. Turning to `C[C@@H](COc1ccccc1)N(CCCl)Cc1ccccc1`, the concentration at half-maximal activity (AC50) at Cytochrome P450 1A2 is 12.6 µM (inconclusive); on Cytochrome P450 2C9 it was 31.6 µM (inconclusive) and 12.6 µM (inconclusive).

With `COC(=O)c1ccc(C(=O)OC)c(NC(=O)CSCc2ccc(Br)cc2)c1`, the AC50 on Cytochrome P450 2C19 (read-out: AC50) is 2.24 µM (inconclusive).

For `O=S(=O)(c1cccc2cnccc12)N1CCNCC1`, the half-maximal activity concentration (AC50) on Cytochrome P450 2C19 (read-out: AC50) is 10 µM (inconclusive); on Cytochrome P450 1A2, 39.8 µM (inconclusive).

For the molecule `Cc1c(C(=O)NCc2ccc3c(c2)OCO3)oc2ccc(Br)cc12`, the CC50 in data set [4] was 19.1 µM (active). `N#C/C(=C(\O)C(=O)O)c1ccc(-c2cccc3ccccc23)cc1`: the AC50 entry on Cytochrome P450 2C19 is “inconclusive”; at Cytochrome P450 2C9, 3.16 µM (inconclusive). For the molecule `O=S(=O)(c1ccc2c(c1)OCCO2)N1CCC(c2nc(O)c3nnn(Cc4cccc(F)c4)c3n2)CC1`, in [4], the CC50 is 31.9 µM (active).

For `COc1ccc(-c2nnc(NC(=O)c3ccc4c(c3)OCCO4)o2)cc1`, the EC50 in [1], in [2] and in data set [3] was > 120 µM (not active) in each case.

On to `O=C1CSc2ccc(C(=O)NCCC3=CCCCC3)cc2N1`, for which the results for the half-maximal activity concentration (AC50) at Cytochrome P450 2C19 (read-out: AC50) and at Cytochrome P450 3A4 were 7.94 µM (inconclusive) and 12.6 µM (inconclusive), respectively. For `C[C@@H](C(=O)NCc1ccc(S(C)(=O)=O)cc1)[C@@H]1C[C@@]1(C)[C@@H](NC(=O)OCc1ccccc1)c1ccccc1`, on Cytochrome P450 1A2, the AC50 was 15.8 µM (inconclusive). In the case of `O=C(Oc1ccccc1)N1CCC2(CC1)CN(Cc1ccncc1)C2`, the concentration at half-maximal activity (AC50) at Cytochrome P450 2C19 (read-out: AC50) is 20 µM (inconclusive); at Cytochrome P450 1A2 it was 10 µM (inconclusive); at Cytochrome P450 3A4 it was 12.6 µM (inconclusive). In the case of `O=C(Nc1ccccn1)C1CCN(c2ncnc3c2nc2n3CCCCC2)CC1`, the CC50 in data set [4] is 18.5 µM (active). With `Cc1ccc(S(=O)(=O)N2CCC(C(=O)O)(c3ccccc3)CC2)cc1`, on Cytochrome P450 2C19, the AC50 entry was “inconclusive”. Turning to `COc1ccc(C2=NOC(C(=O)Nc3ccc(C(C)=O)cc3)C2)cc1OC` (stereo unspecified), the AC50 on Cytochrome P450 2C19 (read-out: AC50) is 22.4 µM (inconclusive); on Cytochrome P450 1A2, 6.31 µM (inconclusive); on Cytochrome P450 2C9 it was 11.2 µM (inconclusive). In the case of `CCOC(=O)c1oc2ccccc2c1NC(=O)CN1CCN(C)CC1`, the values for the EC50 in data set [1], in [2] and in data set [3] were 10.9 µM (active), 17.6 µM (active) and 7 µM (active), respectively. `O=C(Nc1ccc(Cl)c(Cl)c1)c1cccc(S(=O)(=O)NCc2cccnc2)c1`: the results for the AC50 in [5] and in data set [6] were 5.39 µM (active) and 6.59 µM (active), respectively. As to `CCOc1ccc(NC(=S)NC(=O)/C=C/c2ccc(OC)c(OC)c2)c([N+](=O)[O-])c1`, the AC50 at Cytochrome P450 1A2 is 15.8 µM (inconclusive); at Cytochrome P450 2C9 it was 14.1 µM (inconclusive). As for `CN(Cc1ccccc1)C(=O)c1cccc(NC(=O)Cc2ccc([N+](=O)[O-])cc2)c1`, the AC50 in data set [5] is 16.8 µM (active); in [6] it was > 70 µM (inactive).

Regarding `Cc1cccc2sc(NC(=O)C3CSC4(C)CCC(=O)N34)nc12` (stereo unspecified), the EC50 in data set [1], in data set [2] and in data set [3] was > 120 µM (not active) throughout.

Consider `COc1cccc(N2CCN(CC(=O)Nc3ccc(SC(F)F)cc3)CC2)c1`, for which the EC50 in data set [1], in [2] and in [3] was > 120 µM (not active) each time. Regarding `CC(=O)c1cccc(Nc2nc(-c3ccccc3)cs2)c1`, the CC50 in data set [4] was 21.2 µM (active). With `Cc1c(C(=O)O)oc2ccc(S(=O)(=O)NCc3ccc4c(c3)OCO4)cc12`, the AC50 at Cytochrome P450 1A2 was 14.1 µM (inconclusive); at Cytochrome P450 2C9, 3.55 µM (inconclusive). For `Cc1ccc(F)cc1NC(=O)CSc1nc(Nc2ccccc2)nc(N2CCOCC2)n1`, the EC50 in data set [1] was 14.8 µM (active); in data set [2], > 120 µM (not active); in [3], 15.6 µM (active). Turning to `COc1cccc(Cn2c(=O)c(CCc3ccccc3)nc3cnc(OC)nc32)c1`, the AC50 at Cytochrome P450 1A2 is 12.6 µM (inconclusive). Consider `COC(=O)C1=C(N)Oc2cc(N(C)C)ccc2C1c1ccccc1OC` (stereo unspecified), for which the EC50 was 11.3 µM (active) in [1] and 6.94 µM (active) in data set [3]. With `CC(=O)C(C)Oc1ccc2c3c(c(=O)oc2c1)CCCCC3` (stereo unspecified), the CC50 in data set [4] is > 50 µM (active). With `O=C(Nc1nc2ccccc2n1CCN1CCCCC1)C1CCCCC1`, the values for the AC50 on Cytochrome P450 2C19 (read-out: AC50) and on Cytochrome P450 3A4 were 28.2 µM (inconclusive) and 17.8 µM (inconclusive), respectively. As for `Cc1ccc(S(=O)(=O)N(C)C)cc1NC(=O)COC(=O)/C(=C/c1ccc(F)cc1)c1cccs1`, the CC50 in data set [4] is 29.7 µM (active). As for `Cc1ccc2c(c1)/C(=N/OC(=O)c1ccc(F)cc1)CCS2`, the AC50 at Cytochrome P450 1A2 was 0.501 µM (inconclusive). Take `CCOC(=O)c1c(N)n(CCCOC(=O)c2ccco2)c2nc3ccccc3nc12`: the concentration for a half-maximal effect (EC50) in [1] is > 120 µM (not active); in data set [2] it was > 120 µM (not active); in data set [3] it was 8.24 µM (active). Take `O=C(Nc1ccc(F)cc1F)c1cccn1-c1ncc(C(F)(F)F)cc1Cl`: the AC50 was 14.1 µM (inconclusive) on Cytochrome P450 1A2, 28.2 µM (inconclusive) at Cytochrome P450 3A4 and 39.8 µM (inconclusive) at Cytochrome P450 2C9. Turning to `Cc1ccc(/C=C/C2=NN(Cc3ccccc3)C(=O)CC2)cc1`, the CC50 in data set [4] is 15 µM (active).

Regarding `CNC[C@@H](SC)c1ccc(O)c(O)c1`, on Cytochrome P450 1A2, the AC50 was 6.31 µM (inconclusive).

With `COc1cccc(C(C#N)N2N=C(C)CC2(C)C)c1O` (stereo unspecified), the concentration at half-maximal activity (AC50) on Cytochrome P450 2C19 (read-out: AC50) is 2.24 µM (inconclusive).
